Measured values: publication PMC9811519 (RSC Chemical Biology, 2022)
Where a SMILES comes first, the peptide text is derived from it. The star is where a group is joined. X1 = O=C(O)CN(CCN(CC(=O)O)CC(=O)O)CCN(CC(=O)O)CC(=O)NCCN1C(=O)CC(*)C1=O; Myristoyl = CCCCCCCCCCCCCC(=O)*

Key:
[1] = system: 5T33 murine myeloma cells; assay: Cell viability, trypan blue exclusion assay
Description: Cell viability was assessed using a trypan blue exclusion assay (Fig. 2(d) and (e)).
(§1) After cell labelling, cells were washed twice with PBS and 300 μL of fresh growth media was added. Uptake efficiency was quantified at this time-point by measuring pellet and supernatant in the γ-counter. At 2, 5 and 20 h after addition of fresh media, cells were washed twice and activity in both the supernatant (original supernatant and washes) and pellet was measured using a γ-counter. Efflux was quantified as the activity of the supernatant divided by the total activity (supernatant + pellet). Cell viability was assessed prior to radiolabelling and at each time point by trypan blue exclusion.[54]

[2] = system: 5T33 murine myeloma cells; assay: Efflux / retention of indium-111 by radiolabelled cells; assay type: cell-based; conditions: 5T33 cells washed after radiolabelling, γ-counter, SD of 3 biological replicates
Description: To measure efflux, cells were washed after radiolabelling and re-incubated in fresh growth medium for 2–20 h.
as §1

[3] = system: 5T33 murine myeloma cells; assay: Comparative cell uptake (cell radiolabelling yield), 10^5 cells, 2 MBq; assay type: cell-based
Description: Cell pellets were obtained by centrifugation, washed and gamma-counted.
as §1

[4] = system: NSG male mice; assay: SPECT/CT imaging and ex vivo biodistribution; assay type: in vivo, mouse
Description: A SPECT/CT scan was acquired for 2 h immediately after injection (Fig. 3(a)).
Animal imaging studies were ethically reviewed by an Animal Welfare & Ethical Review Board at King's College London and carried out in accordance with the Animals (Scientific Procedures) Act 1986 (ASPA) UK Home Office regulations governing animal experimentation. […] Animals were maintained under isoflurane inhalation anaesthesia (2– 2.5% Isoflurane in air) for 2 h post-injection. […] The whole body SPECT scan time was 30 min × 4, (conducted sequentially) with a frame time of 40 s (using a 4-head scanner with 4 × 9 [1.4 mm] pinhole collimators in helical scanning mode) followed by a helical CT (45 kVP X-ray source, 1000 ms exposure time in 180 projections over 7.5 min). After this, animals were allowed to recover. SPECT/CT scans were acquired again, 1 day PI, after which all animals were culled (by increasing the dose of anaesthesia followed by cervical dislocation to confirm death) and organs/tissues harvested, weighed and radioactivity counted using a gamma counter. SPECT/CT images were reconstructed in a 256 × 256 matrix using HiSPECT (ScivisGmbH), a reconstruction software package and visualised and quantified using VivoQuant v.3.0 software (InVicro LLC., Boston, USA).

SMILES: [111In+3].[O-]c1cccc2cccnc12.[O-]c1cccc2cccnc12.[O-]c1cccc2cccnc12 [[^111In]In-(oxine)3]
- Cells viable after radiolabelling ([1]; 5T33 cells, 20 h after radiolabelling, trypan blue exclusion, prior to radiolabelling 89 ± 4% (DTPA-CTP group) and 96 ± 0.3% (oxine group), 3 biological replicates): 74 ± 6%
- Indium-111 remaining associated with cells ([2]; 2 h after re-incubation in fresh growth medium): 76.0 ± 5.1%
- Indium-111 remaining associated with cells ([2]; 20 h after re-incubation in fresh growth medium): 46.0 ± 9.6%
- Cell radiolabelling yield ([3]; 1 × 10^5 5T33 cells in 200 μL, 2 MBq, 37 °C, DTPA-CTP tracer 3 h in serum-containing media, oxine tracer 30 min in serum-free media, washed, γ-counted, SD of 3 biological replicates): 20.6 ± 6.1 %AR
- Average radioactivity per cell ([3]; 1 × 10^5 5T33 cells, 2 MBq added radioactivity, corresponds to the cell radiolabelling yield): 4.1 ± 1.0 Bq per cell

SMILES: CCCCCCCCCCCCCC(=O)NCCCC[C@H](NC(=O)CCCCCCCCCCCCC)C(=O)N[C@@H](CO)C(=O)N[C@@H](CO)C(=O)N[C@@H](CCCCN)C(=O)N[C@@H](CO)C(=O)N1CCC[C@H]1C(=O)N[C@@H](CO)C(=O)N[C@@H](CCCCN)C(=O)N[C@@H](CCCCN)C(=O)N[C@@H](CC(=O)O)C(=O)N[C@@H](CC(=O)O)C(=O)N[C@@H](CCCCN)C(=O)N[C@@H](CCCCN)C(=O)N1CCC[C@H]1C(=O)NCC(=O)N[C@@H](CC(=O)O)C(=O)N[C@@H](CSC1CC(=O)N(CCNC(=O)CN(CCN(CCN(CC(=O)O)CC(=O)O)CC(=O)O)CC(=O)O)C1=O)C(=O)O (some centres unmarked) [[^111In]In-DTPA-CTP, metal not drawn] (Myristoyl-K(Myristoyl)SSKSPSKKDDKKPGDC(X1)-OH)
- Localisation of indium-111 activity by SPECT/CT ([4]; NSG male mice, intravenous via tail vein, 0–2 h PI, one animal per group scanned): indium-111 activity in the blood pool and liver
- Time to dissociation from cell membranes post-administration of cells ([4]; [^111In]In-DTPA-CTP-labelled 5T33 cells, intravenous, NSG mice, inferred from SPECT): 1 to 2 h
- Cells viable after radiolabelling ([1]; 20 h): 88 ± 2%
